Measured values taken from ChEMBL document CHEMBL1122611, “Synthesis and in vitro biological evaluation of N-[(5-amino-1-beta-D-ribofuranosyl-1H-imidazol-4-yl)carbonyl]-3- (hydroxynitrosamino)-L-alanine (L-alanosine AICO ribonucleoside)” (1984).

Tests used:
[1] = Evaluation of inhibitory activity against adenylosuccinate synthetase
HL-60 = test: In vitro evaluation of inhibitory activity of HL60 human promyelocytic tumor cell; assay type: functional; conditions: read-out: ED50 (the source's name)
[2] = Evaluation of inhibitory activity of adenylosuccinate synthetase

| Compound | ED50 [1] [µM] | EC50 (HL-60) [µM] | ED50 [2] [µM] |
| --- | --- | --- | --- |
| N[C@@H](CN(O)N=O)C(=O)O [LALANOSINE] | 7000 | 2 |  |
| Nc1c(C(=O)NC(CN(O)N=O)C(=O)O)ncn1[C@@H]1O[C@H](CO)[C@@H](O)[C@H]1O (stereo not given in full) | > 1000 | > 100 | 0.3 |
